# How the values were obtained:
# [1] = Other pharmacological experiment (mucosal stabilizing, anti-inflammative, wound-healing); details: another experiment, no data shown
# [2] = tested on: stress ulcer; test: Stress ulcer; format: in vivo, rat (male Wistar strain); details: 100 mg./kg. per os, 30 minutes before the stress; 18 hours stress
# Procedure: To study the anti-ulcerative actions of the test drugs in experimental animals, the stress ulcer was selected. Male rats of the Wistar strain, weighing 200-250 g. were subjected to stress according to Takagi et. al. (Chem. Pharm. Bull 12,465. 1964). The four test drugs, the present compound (III), α-bisabolol (I), farnesyl carboxylic acid (II) and gefarnate were suspended in 1% methyl cellulose and were administered to the rats in a dose of 100 mg./kg. body weight per os, 30 minutes before the stress. The animals were placed in the stress box and immersed in water bath of 20°-25° C. to the level of the xiphoid process for 18 hours.
# At the end of the stress the animals were removed from the stress box, killed by a blow on the head, and the stomach removed. The stomach was filled with 1% formalin solution, placed in 1% formalin solution for 15 minutes and was then cut open along the greater curvature and examined for lesions to obtain the ulcer index. The ulcer index was determined in six grades (0-5; 5 implying perforation of stomach).
# [3] = Chemical stability; format: physicochemical
# [4] = tested on: 5-HT induced ulcer; test: 5-HT induced ulcer; format: in vivo, rat
# Procedure: In the following experiments, the effects of test drugs on 5-HT induced ulcer were investigated. To induce the gastric lesion, rats were fasted for 24 hours before injection of 5-HT 30 mg./kg. S.C. The animals were sacrificed after 20 hours of 5-HT injections, and examined for lesion. The dose and route of administration of test drugs are the same as experiment 3. In the experiment, the area of lesions (mm.^2) were measured as the ulcer-index.
# [5] = tested on: aspirin ulcer; test: Aspirin-induced gastric mucosal lesion (aspirin ulcer); format: in vivo; details: aspirin 100 mg./kg. per os
# Procedure: (§1) Each drug in Table 5, suspended with TWEEN 80 and 1% CMC solution, was given either intraduodenally immediately after pylorus ligation (aspirin ulcer) or orally (indomethacin ulcer) at the volume of 0.5 ml./100 g. Aspirin was given orally 10 min. after pylorus ligation. Indomethacin was given orally 10 min. after drug administration. All animals were sacrificed 7 hrs. after operation.
# [6] = tested on: carrageenin-induced rat paw edema; test: Carrageenin-induced rat paw edema; format: in vivo, rat (Wistar); details: 300 mg./kg. per os
# Procedure: To study the effect of the present compound on carrageenin-induced rat paw edema, the method of C. A. Winter (J. Pharmacol 141,369, (1963)) was applied. Wistar rats, weighing about 140 g. were used.
# The present compound (III), α-bisabolol and farnesyl carboxylic acid were administered at a dosage of 300 mg./kg. (per os.) using a 1% CMC solution as the vehicle. The % inhibition was calculated as follows: [formula]
# [7] = LD50 by the up and down method; format: in vivo; details: mouse, in vivo, po; per os; observations for 24 hours
# Procedure: (§2) The LD50 value of the present compound in ddY strain mice was determined by the up and down method, with observations carried out for 24 hours.
# (§3) The test drugs used in this experiment were suspended in 1% methyl cellulose and were given orally.
# [8] = tested on: ddY strain mice; test: LD50 by the up and down method; format: in vivo; details: per os; ratio of LD50
# Procedure: as §2, §3
# [9] = tested on: gastric epithelial cell; test: N-acetyl neuromatic acid (NANA) in gastric juice of pylorus-ligated rats (gastric epithelial cell stabilizing effect); format: in vivo, rat (male Donryu strain); design: unit not given here; details: 200 mg./kg. orally, three times a day for 5 days, and after pylorus ligation, 8 h ligation
# Procedure: (§4) Male Donryu strain rats, weighing about 200 g., were divided into five groups. […] On the fifth day the animals were fasted for 24 hours, and submitted to pylorus ligation under light ether anethesia.
# (§5) The drugs were given just after pylorus ligation orally. After 8 hours of ligation, the rats were sacrificed and gastric juice was collected.
# [10] = tested on: indomethacin ulcer; test: Indomethacin-induced gastric mucosal lesion (indomethacin ulcer); format: in vivo; details: 300 mg./kg. orally; indomethacin 20 mg./kg. per os
# Procedure: The preventive activity of new compound (III) against the formation of gastric mucosal lesion induced by the gastric ulcerogenic, anti-inflammatory drugs, indomethacin and aspirin was evaluated according to Okabe et. al. (Jap. J. Pharmacol. 24 169 p. 1974, Amer. J. Dig. Dis. 20 626 1975).
# as §1
# [11] = tested on: gastric mucosa; test: Gastric errosion induced by 8 hours of pylorus ligation; format: in vivo, rat (male Donryu strain); details: 200 mg./kg. orally
# Procedure: as §4, §5
# [12] = cited from earlier work; for sedative or depressive activities: Ann. Pharm. France, 33, 229 ('75); for anti-inflammative and anti-ulcerative activities: literature
Structure (SMILES),"score (ulcer index, grades 0-5) [2]",Inhibition ([5]; 100 mg./kg. intraduodenally),"Ulcer Index, means ± s.e. ([5]; 100 mg./kg. intraduodenally)",Inhibition ([5]; 300 mg./kg. intraduodenally),"Ulcer Index, means ± s.e. ([5]; 300 mg./kg. intraduodenally)",Inhibition ([5]; 1000 mg./kg. intraduodenally),"Ulcer Index, means ± s.e. ([5]; 1000 mg./kg. intraduodenally)",Increase in % of paw edema [6],Maximum % Inhibition [6],increased rate of paw-edema (fraction) [6],LD50 at 24 h [7],"Amounts of NANA, bond [9]","Amounts of NANA, free [9]","Amounts of NANA, total [9]",sedative or depressive activities [12],anti-inflammative and anti-ulcerative activities [12],further results
"CC(C)=CCCC(C)=CCCC(C)=CCC(=O)OC(C)(CCC=C(C)C)C1CC=C(C)CC1 (stereo not shown) [Compound (III), 4,8,12-1,5-dimethyl-1-(4-methyl-3-cyclohexenyl)-4-hexenyl ester of 4,8,12-trimethyl-3,7,11-tridecatrienoic acid]",1.5 ± 0.50,29.8%,21.4 ± 4.4 mm.^2,44.6%,16.9 ± 3.6 mm.^2,65.2%,10.6 ± 2.2 mm.^2,60.4%,39.6%,0.604,24.1 mg/kg,71.8,16.2,88.9,–,–,"mucosal stabilizing, anti-inflammative and wound-healing activities [1]: possess mucosal stabilizing anti-inflammative, and wound-healing activities; chemical stability [3]: chemically stable; inhibition of the occurrence of lesions ([4]; 100 mg./kg.): inhibits the occurrence of lesions completely; Ulcer Index (area of lesions) ([4]; 100 mg./kg. per os, 5-HT 30 mg./kg. S.C., 20 hours): 0 mm.^2; toxicity, times less than that of α-bisabolol and farnesyl carboxylic acid [8]: 6-7 times; Inhibition [10]: 42.6%; Ulcer Index, means ± s.e. [10]: 26.4 ± 5.4 mm.^2; damage to the gastric mucosa (gastric errosion) [11]: did not produce any damage to the gastric mucosa"
"CC(C)=CCCC(C)=CCCC(C)=CCC(=O)O [Farnesyl carboxylic acid, 4,8,12-trimethyl-3,7,11-tridecatrienoic acid]",2.33 ± 0.84,–,–,–,–,–,–,76.7%,23.3%,0.767,4.26 mg/kg,80.6,18.3,98.6,–,–,–
CC(C)=CCC/C(C)=C/CC/C(C)=C/CCC(=O)OC/C=C(\C)CCC=C(C)C [Gefarnate],3.83 ± 0.73,22.3%,23.7 ± 3.2 mm.^2,49.9%,16.2 ± 2.9 mm.^2,49.5%,15.4 ± 4.4 mm.^2,–,–,–,–,72.8,20.8,93.6,–,–,–
C=CC(C)=CCC=C(C)CCC=C(C)C [farnesene],–,–,–,–,–,–,–,–,–,–,–,–,–,–,sedative or depressive activities,anti-inflammative and anti-ulcerative activities,–
"CC(C)=CCCC(C)(O)C1CC=C(C)CC1 (stereo not drawn) [α-Bisabolol, α-bisabolol]",4.0 ± 0.25,–,–,–,–,–,–,88.1%,11.9%,0.881,3.67 mg/kg,136.3,12.4,148.7,sedative or depressive activities,anti-inflammative and anti-ulcerative activities,–

# — patent US4209529A, “Farnesyl carboxylic acid α-bisabolol ester, a mucosal stabilizing composition and method of manufacturing the same” (Kotobuki Seiyaku Company Limited, priority 1977, dated 1980)
